Reference: publication PMC6222832, “Kinetic Characterization of Novel HIV-1 Entry Inhibitors: Discovery of a Relationship between Off-Rate and Potency” (Molecules : A Journal of Synthetic Chemistry and Natural …, 2018)

What was measured:
[1] = tested on: HIV-1 JR-CSF Env pseudotyped HIV-1; test: microbe, parasite or virus in culture; type: cell-based; conditions: Human immunodeficiency virus 1, U87/CD4/CCR5, 48 h, read-out: IC50 JR-CSF
[2] = tested on: HIV-1 B41 Env pseudotyped HIV-1; test: microbe, parasite or virus in culture; type: cell-based; conditions: Human immunodeficiency virus 1, U87/CD4/CCR5, 48 h, read-out: IC50 B41
[3] = tested on: HIV-1B41 and HIV-1JR-CSF Env pseudotyped virions; test: microbe, parasite or virus in culture; type: cell-based; conditions: Human immunodeficiency virus 1, read-out: Median IC50
[4] = molecular target: HIV-1 B41 SOSIP.664 gp140 trimer (Human immunodeficiency virus type 1, UniProt B3UES2, A505C/E513R/I563P/INS515RR/K514R/T609C); type: binding
[5] = molecular target: B41 SOSIP.664 gp140 trimer (Human immunodeficiency virus type 1, UniProt B3UES2, A505C/E513R/I563P/INS515RR/K514R/T609C); type: binding, HIV-1
in vitro = conditions: human

Row | SMILES | IC50 [1] | IC50 [2] | IC50 [3] | ka [4] | kd [4] | ka [5] | kd [5] | CC50 at 48 h (in vitro)
1 | COc1cnc(-n2cnc(C)n2)c2[nH]cc(C(=O)C(=O)N3CCN(C(=O)c4ccccc4)CC3)c12 [BMS-626529, reference compound] | 0.06 ± 0.005 nM | 0.05 ± 0.006 nM | 0.055 nM | 38900 M⁻¹ s⁻¹ | 0.00059 s⁻¹ | – | – | –
2 | COc1cnc(-n2cnc(C)n2)c2[nH]cc(C(=O)C(=O)N3CC4CN(C(=O)c5ccccc5)CC4C3)c12 (centres unmarked) [SC11] | 0.6 ± 0.1 nM | 2 ± 0.2 nM | ~2 nM | – | – | 4330 M⁻¹ s⁻¹ | 0.000287 s⁻¹ | > 50 µM
3 | COc1cnc(-n2cnc(C)n2)c2[nH]cc(C(=O)C(=O)N3CC(CSC(=O)c4ccccc4)C3)c12 [SC16] | 29 ± 8 nM | 37 ± 5 nM | 33 nM | – | – | 86200 M⁻¹ s⁻¹ | 0.00598 s⁻¹ | > 50 µM
4 | COc1cnc(-n2cnc(C)n2)c2[nH]cc(C(=O)C(=O)N(C)C3CN(C(=O)c4ccccc4)C3)c12 [SC18] | 132 ± 4 nM | 360 ± 12 nM | 246 nM | – | – | 15900 M⁻¹ s⁻¹ | 0.0248 s⁻¹ | > 50 µM
5 | COc1cnc(-n2cnc(C)n2)c2[nH]cc(C(=O)C(=O)N3CC4C=NN(c5nnnn5-c5ccccc5)C4C3)c12 (centres unmarked) [SC39] | 143 ± 52 nM | 5320 ± 260 nM | 2730 nM | – | – | 1390 M⁻¹ s⁻¹ | 0.0381 s⁻¹ | > 50 µM
